Experimental data reported in patent US7772183B2 (Bristol-Myers Squibb Company, priority 2005, dated 2010).

Key:
[1] = molecular target: T1, HCV NS3/4A protease complex, J4L6S strain (Hepatitis C virus genotype 1b, UniProt O92972, C1454S/C1711G); assay: FRET peptide assay to monitor HCV NS3/4A proteolytic activity (J4L6S strain); format: biochemical
T1 construct: DNA encoding the recombinant HCV NS3/4A protease complex (amino acids 1027 to 1711) for these strains; inferred from the pET21b vector and Ni-NTA purification; made in house; host or cells: Escherichia coli BL21 (DE3), pET21b
T1 sequence (O92972 1027-1711 C1454S/C1711G, one chain of several): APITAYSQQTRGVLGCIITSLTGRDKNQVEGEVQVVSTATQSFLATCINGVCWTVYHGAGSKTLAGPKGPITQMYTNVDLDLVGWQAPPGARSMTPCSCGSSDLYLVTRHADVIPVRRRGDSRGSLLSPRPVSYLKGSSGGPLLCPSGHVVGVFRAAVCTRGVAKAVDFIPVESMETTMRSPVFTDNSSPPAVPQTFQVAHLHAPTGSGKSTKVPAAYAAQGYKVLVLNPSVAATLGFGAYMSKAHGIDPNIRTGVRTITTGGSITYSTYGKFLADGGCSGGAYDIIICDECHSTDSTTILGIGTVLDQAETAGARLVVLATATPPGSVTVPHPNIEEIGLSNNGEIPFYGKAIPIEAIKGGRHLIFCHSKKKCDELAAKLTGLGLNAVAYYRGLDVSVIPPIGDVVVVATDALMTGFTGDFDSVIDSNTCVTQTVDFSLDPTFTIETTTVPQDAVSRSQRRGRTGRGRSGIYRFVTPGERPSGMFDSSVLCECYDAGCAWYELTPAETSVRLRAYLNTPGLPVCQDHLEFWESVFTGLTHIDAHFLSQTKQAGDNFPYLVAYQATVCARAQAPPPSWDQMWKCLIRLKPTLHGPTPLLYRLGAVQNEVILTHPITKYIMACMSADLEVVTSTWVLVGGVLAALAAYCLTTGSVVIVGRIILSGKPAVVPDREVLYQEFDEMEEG
Text: HCV NS3 protease complexes, derived from the BMS strain, H77 strain or J4L6S strain, were generated, as described below. These purified recombinant proteins were generated for use in a homogeneous assay (see below) to provide an indication of how effective compounds of the present disclosure would be in inhibiting HCV NS3 proteolytic activity.
Serum from an HCV-infected patient was obtained from Dr. T. Wright, San Francisco Hospital. An engineered full-length cDNA (compliment deoxyribonucleic acid) template of the HCV genome (BMS strain) was constructed from DNA fragments obtained by reverse transcription-PCR (RT-PCR) of serum RNA (ribonucleic acid) and using primers selected on the basis of homology between other genotype 1a strains. From the determination of the entire genome sequence, a genotype 1a was assigned to the HCV isolate according to the classification of Simmonds et al. (See P Simmonds, K A Rose, S Graham, S W Chan, F McOmish, B C Dow, E A Follett, P L Yap and H Marsden, J. Clin. Microbiol., 31(6), 1493-1503 (1993)). […]

[2] = molecular target: T2, human neutrophil elastase (HNE) (Homo sapiens, UniProt P08246); assay: Specificity assay, neutrophil elastase; format: biochemical; details: read-out: HLE activity in the specificity assays
T2 construct: purchased Sigma or EMDbiosciences
T2 sequence (P08246 30-267): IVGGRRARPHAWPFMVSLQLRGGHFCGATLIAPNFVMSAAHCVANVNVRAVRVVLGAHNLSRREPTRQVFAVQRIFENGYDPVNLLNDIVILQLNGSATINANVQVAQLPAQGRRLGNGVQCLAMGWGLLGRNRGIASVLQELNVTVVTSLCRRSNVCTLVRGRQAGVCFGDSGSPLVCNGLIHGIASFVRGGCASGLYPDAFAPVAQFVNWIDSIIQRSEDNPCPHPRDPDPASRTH
Method: The specificities of compounds of the present disclosure were determined against a variety of serine proteases: human neutrophil elastase (HNE), porcine pancreatic elastase (PPE) and human pancreatic chymotrypsin and one cysteine protease: human liver cathepsin B. In all cases, a 96-well plate format protocol using colorimetric p-nitroaniline (pNA) substrate or fluorometric Amino-Methyl-Coumarin (AMC) substrate, specific for each enzyme was used as described previously (PCT Patent Application No. WO 00/09543) with some modifications. All enzymes were purchased from Sigma or EMDbiosciences while the substrates were from Bachem.
Each pNA assay included a 2 h enzyme-inhibitor pre-incubation at room temperature followed by addition of substrate and hydrolysis to ˜15% conversion as measured on a Spectramax Pro microplate reader. The cathepsin B assay was initiated by adding substrate to a 10 min enzyme-inhibitor pre-incubation at room temperature, and the assay plate measured immediately using the Cytofluor Series 4000. Compound concentrations varied from 100 to 0.4 μM depending on their potency.
The final conditions for each assay were as follows: […]
The percentage of inhibition was calculated using the formula: [1−((UVinh−UVblank)/(UVctl−UVblank))]×100 […]

Question: For `CC(C)(C)OC(=O)N[C@H]1CCCCC/C=C\[C@@H]2C[C@@]2(C(=O)NS(=O)(=O)C2CC2)NC(=O)[C@@H]2C[C@@H](OC(=O)c3ccc(C#N)cc3)CN2C1=O` [Compound 26, 18-(4-cyanobenzoyloxy)-14-tert-butoxycarbonylamino-4-cyclopropylsulfonylaminocarbonyl-2,15-dioxo-3,16-diazatricyclo-[14.3.0.0^4,6]-nonadec-7-ene], which IC50 [1] is on record?
Answer: 0.23 nM

Question: And the IC50 [2]?
Answer: > 100000 nM
